In US20260232709A1, “COMPOSITION COMPRISING MELOSIDE FOR ALLEVIATING HAIR LOSS AND IMPROVING HAIR GROWTH” (MORECHEM CO., LTD., priority 2024, published 2026):
“Also recorded” adds a separate entry of the source.

Key:
IL-6 (Interleukin 6) = assay: IL-6 expression in DHT-treated HDPC supernatant (ELISA); assay type: cell-based, human; conditions: HDPC treated with 100 μg/mL DHT, 30 or 100 ppm, 1 day, FIG. 11
Protocol: Specifically, the following groups were prepared: (i) a negative control group, where neither Dihydrotestosterone (DHT) nor Meloside A and L were treated on human dermal papilla cells (HDPC); (ii) an untreated group, where 100 μg/mL DHT was treated on HDPC, but neither Meloside A nor L was treated; (iii) a positive control group, where HDPC were treated with 100 μM Minoxidil or 20 μM Dexamethasone (DEX); and (iv) a treated group, where HDPC were first treated with 100 μg/mL DHT to increase IL-6 expression, and then treated with Meloside A or L at concentrations of 30 or 100 ppm, respectively, for 1 day. After preparation, the cell supernatants from HDPC of (i) to (iv) were obtained, and the increase or decrease in the expression level of IL-6 (Interleukin 6) was confirmed using an Enzyme-Linked Immunosorbent Assay (ELISA). For the analysis of expression patterns for each sample, normalization was performed based on a standard sample of IL-6, and the results are shown in FIG. 11.

DKK1 = DKK1 expression in DHT-treated HDPC supernatant (ELISA); assay type: cell-based, human; conditions: HDPC treated with DHT, 30 or 100 ppm, 1 day, FIG. 7
Protocol: HDPC were treated with DHT to increase DKK1 expression, and then treated with Meloside A or L at concentrations of 30 or 100 ppm, respectively, for 1 day to obtain the cell supernatant. For comparison, HDPC treated with Dihydrotestosterone (DHT) but without Meloside A and L were used as the untreated group, and HDPC treated with 100 μM Minoxidil were used as the positive control group.
The increase or decrease in DKK1 expression level in the obtained cell supernatant was confirmed through an Enzyme-Linked Immunosorbent Assay (ELISA) method, and the results are shown in FIG. 7.

[1] = system: human outer root sheath cells (ORS); assay: Cytotoxicity / growth-proliferation of outer root sheath cells (CCK-8); assay type: cell-based; conditions: 10, 30, 50, 100 ppm, 1 day, CCK-8, 450 nm, FIG. 2
Protocol: Human Hair Outer Root Sheath Cells (ORS), used in the test examples described below, were cultured in culture plates coated with Poly-L-Lysine, using Mesenchymal Stem Cell Medium (MSCM, ScienCell) supplemented with 5% Fetal Bovine Serum (FBS, ScienCell), 1% Mesenchymal stem cell growth supplement (MSCGS, ScienCell), and antibiotics (Penicillin-Streptomycin, ScienCell) as the culture medium, in an incubator at 37° C., 5% CO2, and humid conditions.
Specifically, after treating human dermal papilla cells (HDPC) or human outer root sheath cells (ORS) with Meloside A or Meloside L at concentrations of 10, 30, 50, and 100 ppm for 1 day, CCK-8 (Cell Counting Kit-8, Dojindo, EU) reagent was added to the treated HDPC according to the manufacturer's protocol. Absorbance was then measured at a wavelength of 450 nm using a microplate reader (BioTeK, USA), and the extent of HDPC growth/proliferation by Meloside treatment was compared and confirmed against the negative control group (treated with DMEM instead of Meloside A or L).

androgen receptor = target: T1, androgen receptor (Homo sapiens, UniProt P10275); assay: Androgen receptor nuclear translocation in dermal papilla cells (EGFP-AR, fluorescence microscopy); assay type: cell-based; conditions: DHT co-treated with 100 ppm, 24 hours, FIGS. 5 and 6
T1 construct: host or cells: dermal papilla cells
T1 sequence (P10275 1-920): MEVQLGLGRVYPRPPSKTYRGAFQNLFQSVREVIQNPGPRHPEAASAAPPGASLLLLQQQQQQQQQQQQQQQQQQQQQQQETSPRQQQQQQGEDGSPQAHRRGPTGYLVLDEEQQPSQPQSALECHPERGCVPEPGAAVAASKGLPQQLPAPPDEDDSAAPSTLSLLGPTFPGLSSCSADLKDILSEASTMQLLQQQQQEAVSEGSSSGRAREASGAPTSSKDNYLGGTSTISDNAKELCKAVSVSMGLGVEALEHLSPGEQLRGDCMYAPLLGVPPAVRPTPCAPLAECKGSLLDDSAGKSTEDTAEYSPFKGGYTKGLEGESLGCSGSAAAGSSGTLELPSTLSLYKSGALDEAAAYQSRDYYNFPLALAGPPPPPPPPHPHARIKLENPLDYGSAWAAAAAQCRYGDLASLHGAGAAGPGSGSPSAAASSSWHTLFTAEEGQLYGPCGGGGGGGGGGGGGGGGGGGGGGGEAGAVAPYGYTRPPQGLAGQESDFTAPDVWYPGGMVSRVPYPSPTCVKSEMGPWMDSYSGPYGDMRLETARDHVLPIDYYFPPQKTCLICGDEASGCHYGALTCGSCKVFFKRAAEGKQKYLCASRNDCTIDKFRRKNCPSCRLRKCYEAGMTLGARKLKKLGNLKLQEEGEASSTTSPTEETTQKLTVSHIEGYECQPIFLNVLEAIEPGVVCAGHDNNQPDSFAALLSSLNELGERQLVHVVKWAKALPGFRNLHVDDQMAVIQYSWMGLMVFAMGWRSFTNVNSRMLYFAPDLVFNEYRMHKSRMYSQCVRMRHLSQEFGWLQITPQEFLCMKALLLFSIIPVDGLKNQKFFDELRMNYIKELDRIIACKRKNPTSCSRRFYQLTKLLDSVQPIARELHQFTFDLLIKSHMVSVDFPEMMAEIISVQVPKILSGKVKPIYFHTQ
Protocol: To confirm the involvement of androgen receptors in hair loss-related gene transcription, recombinant plasmid EGFP-AR (Addgene) was used, and the extent of androgen receptor nuclear translocation in dermal papilla cells was measured using a cellular injection method.
For the untreated group, only DHT was treated, and for the negative control group, neither DHT nor the sample was treated. In the experimental group, DHT and Meloside A or L at 100 ppm were co-treated, and after 24 hours, measurements were taken using a fluorescence microscope at Ex 485 nm and Em 535 nm. The results observed with the fluorescence microscope are shown in FIG. 5, and the number of cells with translocated androgen receptors in the treated groups, based on the untreated group, is shown in FIG. 6.

| Compound | IL-6 expression level (IL-6 (Interleukin 6)) | DKK1 expression level (DKK1) | cell growth/proliferation (cytotoxicity) of ORS vs negative control [1] | DHT-induced translocation of androgen receptors (number of cells with translocated AR) (androgen receptor) |
| --- | --- | --- | --- | --- |
| O=c1cc(-c2ccc(O)cc2)oc2cc(O)c([C@@H]3O[C@H](CO)[C@@H](O)[C@H](O)[C@H]3O[C@@H]3O[C@H](CO)[C@@H](O)[C@H](O)[C@H]3O)c(O)c12 [Meloside A, isovitexin 2″-O-glucoside] | decrease in IL-6 expression | concentration-dependent decrease in DKK1 expression | comparable levels of cell growth/proliferation to the negative control group | inhibited; also recorded: superior to that of Meloside L treatment |
| O=c1cc(-c2ccc(O)c(O)c2)oc2cc(O)c([C@@H]3O[C@H](CO)[C@@H](O)[C@H](O)[C@H]3O[C@@H]3O[C@H](CO)[C@@H](O)[C@H](O)[C@H]3O)c(O)c12 [Meloside L, isoorientin 2″-O-glucoside] | no IL-6 expression reduction effect was observed | no effect was observed | comparable levels of cell growth/proliferation to the negative control group | inhibited |
